The text below walks through data of patent US20250066325A1, “DIRECTED DEGRON MOLECULES AND APPLICATIONS THEREOF” (The Brigham and Women's Hospital, Inc., priority 2021, published 2025).

“Also recorded” adds a separate entry of the source.

What all share (type): cell-based
The subject of one test is MOLT4 and KELLY cells. Briefly: Global proteomic studies (TMT) of IMiDs in ZF protein-relevant cell lines. The following applies: 1 μM. The protocol:
Global proteomic studies. To validate the results from the imagining-based experiments, Applicant performed proteomics studies in two ZF protein-relevant cell lines (MOLT4 and KELLY).^26 Briefly, Applicant treated the ZF protein-relevant cells (MOLT4 and KELLY) with IMiDs or PROTACs at 1 μM concentrations, and the protein lysates were prepared from the cells were digested, and labeled using a TMT-based quantification kit. Labeled samples were subjected to LC/MS on an Orbitrap Eclipse Tribrid mass spectrometer. Applicant used the Proteome Discoverer software pipeline and identified the final hits by searching against the uniport database.

The test system of test [1] is ZF degrons fused to eGFP in U2OS cells. Briefly: Automated high-content imaging assay of ZF degron-tagged eGFP degradation (off-target profiling). The following applies: U2OS ZF degron reporter cells, 24 hours, doses 4.3 nM to 20 μM. From the text:
Development and validation of an off-target profiling platform for PROTACs. To profile the ZF degradation propensity of pomalidomide and its analogs, an automated high-content imaging assay was first developed (FIG. 1A). For this platform, 23-amino acid ZF degrons of 12 ZF proteins were selected that are reportedly degraded by pomalidomide and two ZFs that are not.^2 These ZF degrons were inserted into a lentiviral degradation reporter vector (cilantro 2) to compare the fluorescence of ZF-tagged enhanced green fluorescent protein (eGFP) to untagged mCherry with high-content imaging (FIG. 1A). With this assay, wherein compounds are scanned against the 14 stable cell lines containing our tagged ZF-proteins, dose-dependent degradation of ZF degron-tagged eGFP by pomalidomide was reliably detected with a robust readout (Z-prime value of 0.8) (FIG. 5). […] Unlike mass spectrometry, this reporter-based method is not limited by cell-type-specific expression levels of analyte proteins nor by the accessibility to ZFs in the context of full-length proteins that are engaged in protein complexes. […]
The fluorescence intensity of eGFP was normalized to that of mCherry for every cell. […] The degradation score was then calculated by taking the sum of the GFP degradation fractions across all doses for each compound. […]

Another test concerns the target T1, IKZF3 (Homo sapiens, UniProt Q96SW2+Q9UKT9).
T1 construct: Immunoblots for endogenous ZF proteins ZFP91 and IKZF3 in MM1.S cells; endogenous in cells; host or cells: JURKAT, MM1.S
Description: Immunoblot of endogenous ZF protein IKZF3. The following applies: for degradation potency for IKZF3 compared with pomalidomide (immunoblot): MM1.S cells; for off-target degradation of endogenous IKZF3 (immunoblot): JURKAT cells, dose-dependent. Here is the method:
(§1) Western blot analysis. Lysates of cells treated with different compounds were collected with ice-cold M-PER™ Mammalian Protein Extraction Reagent (ThermoFisher Scientific, 78501) with freshly added phosphatase (Sigma-Aldrich, 04906837001) and protease (Sigma-Aldrich, 04693124001) inhibitors following the manufacturer's instructions. Next, 20-50 μg of proteins were fractionated with NuPAGE™ 4-12% Bis-Tris gels (ThermoFisher Scientific, NP0335BOX) then transferred onto nitrocellulose membranes using iBot™ Transfer Stacks (ThermoFisher Scientific, IB23002) following the manufacturer's instructions. Membranes were then stained with primary antibodies in 1:1000 dilutions and secondary fluorescent antibodies in 1:3000 dilutions using iBind™ Flex Fluorescent Detection Solution Kit (ThermoFisher Scientific, SLF2019) following the manufacturer's instructions.
(§2) Primary antibodies used in this study include ZFP91 (Bethyl Laboratories, A303-245A), IKZF3/Aiolos (D1C1E) (Cell Signaling, 15103S), CRBN (D8H3S) (Cell Signaling, 71810S), ALK(D5F3) XP (Cell Signaling, 3633S), phospho-ALK (Tyr1507) (D6F1V) (Cell Signaling, 14678S), β-actin (8H10D10) Mouse mAb (Cell Signaling, 3700S). Fluorescent secondary antibodies used in this study include IRDye 680RD goat anti-mouse IgG (LI-COR Biosciences, 926-68070) and IRDye 800CW goat anti-rabbit IgG (LI-COR Biosciences, 926-32211). Western blot detection was performed using an Odyssey CLx Imaging System (LI-COR Biosciences). Quantification of the relative area and density values of western blot bands were carried out using ImageJ v2.1.0 following the ImageJ User Guide for gel analysis (https://imagej.nih.gov/ij/docs/guide/). Quantified values were normalized by values for loading controls such as β-actin. For phospho NPM-ALK, quantified values were normalized by the values for total ALK.

A further test addresses T2, ZFP91 (Homo sapiens, UniProt Q96JP5+Q96SW2).
T2 construct: Immunoblots for endogenous ZF proteins ZFP91 and IKZF3 in MM1.S cells; endogenous in cells; host or cells: JURKAT, MM1.S, SU-DHL-1, H2228
Description: Immunoblot of endogenous ZF protein ZFP91. The following applies: for degradation potency for ZFP91 compared with pomalidomide (immunoblot): MM1.S cells; for off-target degradation of endogenous ZFP91 (immunoblot): dose-dependent. The protocol:
as §1, §2

Another test concerns SU-DH-L1 cells. Description: Cell viability assay (CellTiter-Glo). The following applies: for IC50: SU-DHL-1, SU-DH-L1 cells, 24 hours. The protocol: Cell Viability Assay. SU-DH-L1 cells were seeded in 30 μl of 8000 cells per well in 384-well plates pre-printed with 10 mM of the stock compounds in varying volumes using a Tecan D300e Digital Dispenser (Tecan). After 24 hours, cell viability was determined using a CellTiter-Glo Luminescent Cell Viability Assay (Promega, G7571) following the manufacturer's instructions. Dose-response curve fitting and IC50 quantification were determined with four parameter nonlinear regression analysis using GraphPad Prism v8.4.2.

Where [2] appears, read: listed as Thalidomide analog with amino group on C5 position.

T2 sequence (Q96JP5 2-570 limits assumed): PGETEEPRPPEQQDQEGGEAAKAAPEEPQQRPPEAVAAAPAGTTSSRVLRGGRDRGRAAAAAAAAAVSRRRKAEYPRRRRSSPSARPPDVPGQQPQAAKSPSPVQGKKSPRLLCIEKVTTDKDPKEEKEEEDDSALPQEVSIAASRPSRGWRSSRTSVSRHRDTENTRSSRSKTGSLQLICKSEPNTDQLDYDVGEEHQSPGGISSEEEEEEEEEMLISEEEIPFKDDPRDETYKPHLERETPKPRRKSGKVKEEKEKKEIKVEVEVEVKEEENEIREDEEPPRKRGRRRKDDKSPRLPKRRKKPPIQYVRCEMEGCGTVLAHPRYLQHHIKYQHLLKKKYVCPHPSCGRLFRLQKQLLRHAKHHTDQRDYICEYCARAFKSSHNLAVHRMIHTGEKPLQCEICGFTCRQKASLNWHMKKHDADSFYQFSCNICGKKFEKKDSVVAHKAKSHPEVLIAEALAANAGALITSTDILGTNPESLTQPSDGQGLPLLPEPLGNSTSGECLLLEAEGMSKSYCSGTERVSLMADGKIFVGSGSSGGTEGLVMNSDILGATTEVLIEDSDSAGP
T2 sequence (Q96SW2 whole entry): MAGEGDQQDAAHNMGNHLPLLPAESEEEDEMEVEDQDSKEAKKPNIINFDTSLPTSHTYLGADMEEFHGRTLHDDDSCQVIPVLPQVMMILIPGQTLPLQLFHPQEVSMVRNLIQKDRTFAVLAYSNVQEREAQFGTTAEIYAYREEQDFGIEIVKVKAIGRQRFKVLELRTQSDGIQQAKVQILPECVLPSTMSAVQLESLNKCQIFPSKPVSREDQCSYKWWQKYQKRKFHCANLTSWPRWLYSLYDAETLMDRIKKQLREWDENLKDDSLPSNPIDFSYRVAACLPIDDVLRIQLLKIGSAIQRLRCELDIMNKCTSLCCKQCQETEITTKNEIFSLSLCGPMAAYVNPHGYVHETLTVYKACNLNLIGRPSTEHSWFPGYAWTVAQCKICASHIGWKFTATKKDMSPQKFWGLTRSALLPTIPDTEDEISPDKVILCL
T2 sequence (Q16531 2-1140 partner limits assumed): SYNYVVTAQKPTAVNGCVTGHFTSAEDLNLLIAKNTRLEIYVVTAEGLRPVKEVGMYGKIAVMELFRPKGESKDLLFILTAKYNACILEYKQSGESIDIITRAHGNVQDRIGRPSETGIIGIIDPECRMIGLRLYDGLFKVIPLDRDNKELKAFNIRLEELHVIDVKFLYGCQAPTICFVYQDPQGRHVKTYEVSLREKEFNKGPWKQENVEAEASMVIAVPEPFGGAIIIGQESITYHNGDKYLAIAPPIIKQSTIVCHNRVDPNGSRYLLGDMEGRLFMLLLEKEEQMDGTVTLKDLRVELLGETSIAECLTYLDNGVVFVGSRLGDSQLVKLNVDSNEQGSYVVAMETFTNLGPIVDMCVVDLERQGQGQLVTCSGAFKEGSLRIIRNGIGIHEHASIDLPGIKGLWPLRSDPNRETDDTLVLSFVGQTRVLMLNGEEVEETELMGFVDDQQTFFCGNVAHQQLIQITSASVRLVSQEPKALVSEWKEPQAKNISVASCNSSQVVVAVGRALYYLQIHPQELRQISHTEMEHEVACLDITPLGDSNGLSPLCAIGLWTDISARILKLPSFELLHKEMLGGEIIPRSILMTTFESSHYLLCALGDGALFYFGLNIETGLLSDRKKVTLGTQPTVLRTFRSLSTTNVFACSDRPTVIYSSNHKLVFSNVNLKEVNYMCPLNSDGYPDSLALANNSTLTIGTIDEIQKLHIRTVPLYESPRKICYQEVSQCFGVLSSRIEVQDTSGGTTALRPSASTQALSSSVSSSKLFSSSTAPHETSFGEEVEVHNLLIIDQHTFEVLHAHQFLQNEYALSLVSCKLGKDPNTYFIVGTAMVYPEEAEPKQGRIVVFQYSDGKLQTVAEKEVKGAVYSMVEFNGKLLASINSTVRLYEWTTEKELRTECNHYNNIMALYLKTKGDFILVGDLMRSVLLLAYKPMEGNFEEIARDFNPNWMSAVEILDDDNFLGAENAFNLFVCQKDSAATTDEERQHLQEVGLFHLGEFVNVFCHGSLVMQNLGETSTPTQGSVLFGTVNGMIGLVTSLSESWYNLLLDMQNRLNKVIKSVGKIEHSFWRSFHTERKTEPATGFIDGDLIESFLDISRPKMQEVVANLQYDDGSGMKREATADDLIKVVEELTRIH
T1 sequence (Q9UKT9 whole entry): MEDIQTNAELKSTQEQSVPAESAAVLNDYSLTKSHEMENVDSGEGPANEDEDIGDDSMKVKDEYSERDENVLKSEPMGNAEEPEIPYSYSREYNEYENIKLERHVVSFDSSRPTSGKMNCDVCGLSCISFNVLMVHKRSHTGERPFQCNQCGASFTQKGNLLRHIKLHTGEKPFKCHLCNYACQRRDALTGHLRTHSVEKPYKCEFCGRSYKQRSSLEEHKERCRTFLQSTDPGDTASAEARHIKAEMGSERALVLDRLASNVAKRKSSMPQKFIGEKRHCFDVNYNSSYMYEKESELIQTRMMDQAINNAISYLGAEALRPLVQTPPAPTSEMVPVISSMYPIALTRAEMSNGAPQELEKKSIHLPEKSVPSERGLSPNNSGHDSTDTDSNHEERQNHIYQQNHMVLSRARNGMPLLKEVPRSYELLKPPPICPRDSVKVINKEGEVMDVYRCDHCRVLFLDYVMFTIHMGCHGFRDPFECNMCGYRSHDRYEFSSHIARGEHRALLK
T1 sequence (Q96SW2 whole entry): as the sequence (Q96SW2 whole entry) above
T1 sequence (Q16531 2-1140 partner limits assumed): as the sequence (Q16531 2-1140 partner limits assumed) above

As for `Nc1cccc2c1C(=O)N(C1CCC(=O)NC1=O)C2=O` (stereo not shown) [Pomalidomide], the “off-target profile in global proteomics” value in the test with MOLT4 and KELLY cells is listed as “exhibited the commonly reported off-targets”. Further, in test [1], the “off-target degradation of ZF degron-tagged eGFP” value was “degraded all 12 ZF degrons”.
As to `Nc1ccc2c(c1)C(=O)N(C1CCC(=O)NC1=O)C2=O` (stereo not shown) [5-aminothalidomide], the “degradation potency for IKZF3 compared with pomalidomide (immunoblot)” value at IKZF3 is “decrease in overall degradation potency”; on IKZF3 (setting [2]), “decrease in the potency”. Moreover, the figures for the “degradation potency for ZFP91 compared with pomalidomide (immunoblot)” value on ZFP91 and on ZFP91 (setting [2]) were “decrease in overall degradation potency” and “decrease in the potency”, respectively.
For `Cc1cc(Nc2ncc(Cl)c(Nc3ccccc3S(=O)(=O)C(C)C)n2)c(OC(C)C)cc1C1CCN(CC(=O)NCCNc2cccc3c2C(=O)N(C2CCC(=O)NC2=O)C3=O)CC1` (stereo not shown) [MS4078], the “off-target degradation of endogenous IKZF3 (immunoblot)” value on IKZF3 was “off-target degradation”. In addition, the “off-target degradation of endogenous ZFP91 (immunoblot)” value at ZFP91 (JURKAT cells) is recorded as “off-target degradation”; on ZFP91 (SU-DHL-1 and H2228 cell lines), “off-target degradation”. Moreover, in test [1], the “off-target degradation of ZF degron-tagged eGFP” value was “high level of off-target ZF degradation; also recorded: ZNF517, ZNF654, ZNF276, ZNF653, and PATZ1”. The compound also had an IC50 with SU-DH-L1 cells (Homo sapiens, Example 1) of 195 nM. In addition, in the test on SU-DH-L1 cells (Homo sapiens, SU-DHL-1 cells, Example 3 numbering), the EC50 came out at 195 nM. The “fold lowering of potency relative to ceritinib” value in the test with SU-DH-L1 cells (IC50 ratio, Example 1) came out at 2.8 fold.
In turn, `Cc1cc(Nc2ncc(Cl)c(Nc3ccccc3S(=O)(=O)C(C)C)n2)c(OC(C)C)cc1C1CCNCC1` [ceritinib] displayed an IC50 in the test with SU-DH-L1 cells (Homo sapiens, Example 1) of 69.3 nM.
As for `CC[C@H](C(=O)N1CCCC[C@H]1C(=O)O[C@H](CCc1ccc(OC)c(OC)c1)c1ccccc1OCC(=O)NCCCCCCOc1cccc2c1C(=O)N(C1CCC(=O)NC1=O)C2=O)c1cc(OC)c(OC)c(OC)c1` (stereo partly shown) [dTAG-13], the “off-target degradation of endogenous IKZF3 (immunoblot)” value at IKZF3 was “off-target degradation”. The “off-target degradation of endogenous ZFP91 (immunoblot)” value on ZFP91 (JURKAT cells) is listed as “off-target degradation”.
